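GI50: concentration for 50% inhibition of growth. Definition used: TGI = concentration required for complete inhibition of growth.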
Tests used:
Assay in all cases: NCI anticancer screen, dose series, 384-well format
[1] = tested on: RPMI-8226 leukemia
[2] = tested on: SF-268 CNS
[3] = tested on: DU-145 prostate
[4] = tested on: HOP-92 NSCLC
[5] = tested on: BT-549 breast
[6] = tested on: KM12 colon
[7] = tested on: 786-0 renal
[8] = tested on: SK-MEL-2 melanoma
[9] = tested on: COLO 205 colon
[10] = tested on: IGROV1 ovarian
[11] = tested on: MDA-MB-231 breast
[12] = tested on: SK-OV-3 ovarian
[13] = tested on: PC-3 prostate

**Q.** With `O=C(/C=C/c1cccc(S(=O)(=O)Nc2ccccc2)c1)NO` as the molecule, how does the GI50 [1] read?
**A.** 95.7 nM

**Q.** And the TGI [1]?
**A.** 221 nM

**Q.** And the GI50 [2]?
**A.** 517 nM

**Q.** What about the TGI [2] of the same molecule?
**A.** 1660 nM

**Q.** And the GI50 [3]?
**A.** 260 nM

**Q.** What about the TGI [3] of the same molecule?
**A.** 793 nM

**Q.** And the GI50 [4]?
**A.** 343 nM

**Q.** What about the TGI [4] of the same molecule?
**A.** 1070 nM

**Q.** And the GI50 [5]?
**A.** 925 nM

**Q.** And the TGI [5]?
**A.** 2820 nM

**Q.** What about the GI50 [6] of the same molecule?
**A.** 128 nM

**Q.** And the TGI [6]?
**A.** 1720 nM

**Q.** And the GI50 [7]?
**A.** 898 nM

**Q.** And the TGI [7]?
**A.** 2780 nM

**Q.** What about the GI50 [8] of the same molecule?
**A.** 265 nM

**Q.** And the TGI [8]?
**A.** 558 nM

**Q.** What about the GI50 [9] of the same molecule?
**A.** 330 nM

**Q.** And the TGI [9]?
**A.** 791 nM

**Q.** And the GI50 [10]?
**A.** 271 nM

**Q.** What about the TGI [10] of the same molecule?
**A.** 781 nM

**Q.** And the GI50 [11]?
**A.** 249 nM

**Q.** What about the TGI [11] of the same molecule?
**A.** 575 nM

**Q.** What about the GI50 [12] of the same molecule?
**A.** 490 nM

**Q.** What about the TGI [12] of the same molecule?
**A.** 1650 nM

**Q.** And the GI50 [13]?
**A.** 433 nM

**Q.** What about the TGI [13] of the same molecule?
**A.** 1760 nM
